Common to all, as to settings: at 1 µM
Test [1] has as its system T1, Receptor-type tyrosine-protein kinase FLT3 (Homo sapiens), P36888 [R834Q].
T1 sequence (whole entry): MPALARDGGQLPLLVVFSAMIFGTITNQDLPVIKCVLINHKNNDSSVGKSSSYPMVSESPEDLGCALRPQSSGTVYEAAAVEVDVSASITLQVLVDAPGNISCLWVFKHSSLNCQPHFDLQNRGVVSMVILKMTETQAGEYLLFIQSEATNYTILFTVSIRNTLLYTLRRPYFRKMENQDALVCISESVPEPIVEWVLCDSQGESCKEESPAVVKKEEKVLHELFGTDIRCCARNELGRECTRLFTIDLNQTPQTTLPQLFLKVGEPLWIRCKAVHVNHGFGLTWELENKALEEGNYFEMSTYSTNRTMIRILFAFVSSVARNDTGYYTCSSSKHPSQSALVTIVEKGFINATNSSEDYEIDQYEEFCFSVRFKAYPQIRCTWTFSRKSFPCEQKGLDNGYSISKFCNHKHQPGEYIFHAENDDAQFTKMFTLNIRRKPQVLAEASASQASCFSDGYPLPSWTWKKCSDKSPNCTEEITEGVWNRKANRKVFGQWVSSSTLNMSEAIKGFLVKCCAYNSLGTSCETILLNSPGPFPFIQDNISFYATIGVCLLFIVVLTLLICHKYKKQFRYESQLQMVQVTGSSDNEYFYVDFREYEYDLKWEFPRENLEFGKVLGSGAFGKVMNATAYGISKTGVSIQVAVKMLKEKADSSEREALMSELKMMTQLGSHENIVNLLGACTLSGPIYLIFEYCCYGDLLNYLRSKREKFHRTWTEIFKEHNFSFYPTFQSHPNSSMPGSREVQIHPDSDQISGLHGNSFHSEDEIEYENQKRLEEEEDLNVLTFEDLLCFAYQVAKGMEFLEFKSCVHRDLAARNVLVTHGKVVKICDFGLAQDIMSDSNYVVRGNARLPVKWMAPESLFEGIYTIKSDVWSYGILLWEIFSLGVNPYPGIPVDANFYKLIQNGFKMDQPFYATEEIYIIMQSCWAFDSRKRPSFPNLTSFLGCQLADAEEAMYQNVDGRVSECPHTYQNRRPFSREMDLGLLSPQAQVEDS
Put plainly: (§1) Selectivity interaction (KinomeScan (DiscoverX)) EUB0001049a FLT3.

The subject of test [2] is T2, Receptor-type tyrosine-protein kinase FLT3 (Homo sapiens), P36888 [D835V].
T2 sequence (whole entry): T1 sequence (whole entry) with Q834R, D835V
Described as §1.

In test [3] the test system is Receptor-type tyrosine-protein kinase FLT3 (Homo sapiens), P36888 [UNDEFINED MUTATION]. The description is as §1.
Test [4] deals with Receptor-type tyrosine-protein kinase FLT3 (Homo sapiens) (UniProt P36888). The test is described as §1.
The subject of test [5] is T3, Receptor-type tyrosine-protein kinase FLT3 (Homo sapiens), P36888 [K663Q].
T3 sequence (whole entry): T1 sequence (whole entry) with K663Q, Q834R
The description is as §1.

Numbering of substitutions follows the chain as printed.

On to `COc1cc(Nc2nc(C)cc(-c3cnn4nc(OC)ccc34)n2)cc(C(F)(F)F)c1`, for which the % of control in test [1] amounted to 100%; in test [2], 86%; in test [3], 81%; in test [4], 100%; in test [5] it was 78%.

For the origin of these results see ChEMBL document CHEMBL5465560, “Selectivity Literature for EUbOPEN Chemogenomic Library” (2024).
